Read-outs that look alike come from different tables or passages of the source.
Tests used:
[1] = Aqueous solubility in the cell culture medium; format: physicochemical
Description: It appeared that the cluttered derivatives (3q, 3s) and the 2-chlorophenoxy derivative (3b) were the less cytotoxic compounds.
The HepG2 cell line was maintained at 37 °C, 5% CO2, at 90% humidity in MEM supplemented with 10% fetal bovine serum, 1% L-glutamine (200 mM), and penicillin (100 U/mL)/streptomycin (100 μg/mL) (complete RPMI medium). The cytotoxicity of the tested molecules on the HepG2 (hepatocarcinoma cell line purchased from ATCC, ref HB-8065) cell line was assessed according to the method of Mosmann with slight modifications. Briefly, 5.10^3 cells in 100 μL of complete medium were inoculated into each well of 96-well plates and incubated at 37 °C in humidified 5% CO2. After 24 h incubation, 100 μL of medium with various product concentrations dissolved in DMSO (final concentration less than 0.5% v/v) were added and the plates were incubated for 72 h at 37 °C. Triplicate assays were performed for each sample. Each plate-well was then microscopically examined for possible precipitate formation before the medium was aspirated from the wells. Next, 100 µL of MTT (3-(4,5-dimethyl-2-thiazolyl)-2,5-diphenyl -2H-tetrazolium bromide) solution (0.5 mg/mL in medium without FBS) was added to each well. Cells were incubated for 2 h at 37 °C. After this time, the MTT solution was removed and DMSO (100 μL) was added to dissolve the resulting blue formazan crystals. Plates were shaken vigorously (700 rpm) for 10 min. The absorbance was measured at 570 nm with 630 nm as reference wavelength using a BIO-TEK ELx808 Absorbance Microplate Reader (LabX, Midland, ON, Canada). DMSO was used as blank and doxorubicin (purchased from Sigma Aldrich) as positive control. Cell viability was calculated as a percentage of control (cells incubated without compound). […] CC50 values to represent the mean value calculated from three independent experiments.

[2] = test system: HepG2 human hepatocyte cell line; assay: In vitro cytotoxicity evaluation HepG2 (MTT); format: cell-based
Description: (§1) For all molecules, the selectivity index was calculated as following SI = CC50/EC50.
(§2) Triplicate assays were performed for each sample. Each plate-well was then microscopically examined for possible precipitate formation before the medium was aspirated from the wells. Next, 100 µL of MTT (3-(4,5-dimethyl-2-thiazolyl)-2,5-diphenyl -2H-tetrazolium bromide) solution (0.5 mg/mL in medium without FBS) was added to each well. […] After this time, the MTT solution was removed and DMSO (100 μL) was added to dissolve the resulting blue formazan crystals. Plates were shaken vigorously (700 rpm) for 10 min. The absorbance was measured at 570 nm with 630 nm as reference wavelength using a BIO-TEK ELx808 Absorbance Microplate Reader (LabX, Midland, ON, Canada). DMSO was used as blank and doxorubicin (purchased from Sigma Aldrich) as positive control. Cell viability was calculated as a percentage of control (cells incubated without compound). […] CC50 values to represent the mean value calculated from three independent experiments.

[3] = test system: K1 chloroquine and pyrimethamine-resistant P. falciparum strain; assay: In vitro antiplasmodial evaluation (SYBR Green I); format: cell-based, Plasmodium falciparum; conditions: for EC50: read-out: EC50 PfK1 (µM) ± SD; for SI (selectivity index): SI = CC50 HepG2/EC50 PfK1
Description: as §1
It was maintained in continuous culture, as described previously by Trager and Jensen. Cultures were maintained in fresh A+ human erythrocytes at 2.5% hematocrit in complete medium (RPMI 1640 with 25 mM HEPES, 25 mM NaHCO3, 10% of A+ human serum) at 37 °C under reduced O2 atmosphere (gas mixture 10% O2, 5% CO2, and 85% N2). Parasitemia was maintained daily between 1 and 3%. The P. falciparum drug susceptibility test was carried out by comparing quantities of DNA in treated and control cultures of parasite in human erythrocytes according to an SYBR Green I fluorescence-based method using a 96-well fluorescence plate reader. Compounds, previously dissolved in DMSO (final concentration less than 0.5% v/v), were incubated in a total assay volume of 200 μL (RPMI, 2% hematocrit and 0.4% parasitemia) for 72 h in a humidified atmosphere (10% O2 and 5% CO2) at 37 °C, in 96-well flat bottom plates. Duplicate assays were performed for each sample. After incubation, plates were frozen at […] for 24 h. Then, the frozen plates were thawed for 1 h at 37 °C. Fifteen µL of each sample were transferred to 96-well flat bottom non-sterile black plates (Greiner Bio-one, Kremsmünster, Austria), already containing 15 µL of the SYBR Green I lysis buffer (2X SYBR Green I, 20 mM Tris base pH 7.5, 20 mM EDTA, 0.008% w/v saponin, 0.08% w/v Triton X-100). […] Plates were incubated for 15 min at 37 °C and then read on a TECAN Infinite F-200 spectrophotometer with excitation and emission wavelengths at 485 and 535 nm, respectively.

[4] = In vitro cytotoxicity evaluation HepG2 (MTT); format: cell-based, human; conditions: human, CC50 HepG2 (µM) ± SD
Description: as §1, §2

[5] = K1 strain, 72 h incubation, three independent experiments
[6] = Plasmodium falciparum, K1, 72 h, K1 strain, 72 h incubation, three independent experiments

Row | Compound | Aqueous solubility in the cell culture medium [1] | CC50 [2] | EC50 [3, 5] | melting point | CC50 at 72 h [4] | EC50 [3, 6] | SI (selectivity index) [3] | CC50 ([2]; human, 72 h) | EC50 ([3]; Plasmodium falciparum, K1, 72 h)
1 | 2-(Naphthalen-1-yloxy)-3-trichloromethylquinoxaline [3r] | poor aqueous solubility | > 31.2 µM | 0.4 ± 0.08 µM |  |  |  |  |  | 
2 | 2-(Naphthalen-2-yloxy)-3-trichloromethylquinoxaline [3q] |  | 53.1 ± 7.6 µM | 0.6 ± 0.1 µM |  |  |  |  |  | 
3 | ClC(Cl)(Cl)c1nc2ccccc2nc1Oc1ccccc1 [3a, 2-Phenoxy-3-trichloromethylquinoxaline] |  |  |  | 59 °C | 45.3 ± 9.6 µM | 0.47 ± 0.1 µM | 96.4 |  | 
4 | Clc1ccccc1Oc1nc2ccccc2nc1C(Cl)(Cl)Cl [3b, 2-(2-Chlorophenoxy)-3-trichloromethylquinoxaline] |  |  |  | 99 °C | 49.5 ± 10.1 µM | 0.55 ± 0.12 µM | 90.0 |  | 
5 | Clc1cccc(Oc2nc3ccccc3nc2C(Cl)(Cl)Cl)c1 [3c] |  |  |  | 58 °C | 37.2 ± 8.1 µM | 0.34 ± 0.06 µM | 109.4 |  | 
6 | Clc1ccc(Oc2nc3ccccc3nc2C(Cl)(Cl)Cl)c(Cl)c1 [3d, 2-(2,4-Dichlorophenoxy)-3-trichloromethylquinoxaline] |  |  |  | 120 °C | 37.7 ± 4.7 µM | 0.6 ± 0.12 µM | 62.8 |  | 
7 | Fc1ccccc1Oc1nc2ccccc2nc1C(Cl)(Cl)Cl [3e, 2-(2-Fluorophenoxy)-3-trichloromethylquinoxaline] | poor aqueous solubility |  |  | 138 °C | > 15.6 µM | 0.64 ± 0.14 µM | >24.4 |  | 
8 | Fc1cccc(Oc2nc3ccccc3nc2C(Cl)(Cl)Cl)c1 [3f, 2-(3-Fluorophenoxy)-3-trichloromethylquinoxaline] |  |  |  | 101 °C | 33.5 ± 6.3 µM | 0.32 ± 0.07 µM | 105.0 |  | 
9 | Fc1ccc(Oc2nc3ccccc3nc2C(Cl)(Cl)Cl)cc1 [3g, 2-(4-Fluorophenoxy)-3-trichloromethylquinoxaline] |  |  |  | 56 °C | 35.9 ± 7.5 µM | 0.42 ± 0.09 µM | 85.5 |  | 
10 | COc1ccc(Oc2nc3ccccc3nc2C(Cl)(Cl)Cl)cc1 [3h, 2-(4-Methoxyphenoxy)-3-trichloromethylquinoxaline] | poor aqueous solubility |  |  | 171 °C | > 7.8 µM | 0.38 ± 0.08 µM | >20.6 |  | 
11 | FC(F)(F)c1ccc(Oc2nc3ccccc3nc2C(Cl)(Cl)Cl)cc1 [3j, 2-Trichloromethyl-3-[4-(trifluoromethyl)phenoxy]quinoxaline] |  |  |  | 129 °C | 28.3 ± 4.4 µM | 0.3 ± 0.06 µM | 94.3 |  | 
12 | FC(F)(F)Oc1ccc(Oc2nc3ccccc3nc2C(Cl)(Cl)Cl)cc1 [3k, 2-Trichloromethyl-3-[4-(trifluoromethoxy)phenoxy]quinoxaline] |  |  |  | 66 °C | 27.1 ± 4.7 µM | 0.4 ± 0.08 µM | 67.8 |  | 
13 | FS(F)(F)(F)(F)c1ccc(Oc2nc3ccccc3nc2C(Cl)(Cl)Cl)cc1 [3l, 2-Trichloromethyl-3-[4-(pentafluorosulfanyl)phenoxy]quinoxaline] |  |  |  | 99 °C | 15.4 µM | 0.2 ± 0.03 µM | 83.0 | 16.6 ± 3.9 µM | 
14 | FC(F)(F)Sc1ccc(Oc2nc3ccccc3nc2C(Cl)(Cl)Cl)cc1 [3m, 2-Trichloromethyl-3-[4-(trifluoromethylthio)phenoxy]quinoxaline] |  |  |  | 94 °C | 25.6 ± 4.6 µM | 0.2 ± 0.04 µM | 128.0 |  | 
15 | N#Cc1ccc(Oc2nc3ccccc3nc2C(Cl)(Cl)Cl)cc1 [3n, 4-[(3-Trichloromethylquinoxalin-2-yl)oxy]benzonitrile] |  |  |  | 194 °C | 16.6 µM | 0.2 µM |  | 15.4 ± 2.1 µM | 
16 | O=S(=O)(c1ccc(Oc2nc3ccccc3nc2C(Cl)(Cl)Cl)cc1)C(F)(F)F [3o, 2-Trichloromethyl-3-[4-(trifluoromethylsulfonyl)phenoxy]quinoxaline] |  |  |  | 107 °C | 7.2 ± 1.4 µM | 0.22 ± 0.07 µM | 32.7 |  | 
17 | N=S(=O)(c1ccc(Oc2nc3ccccc3nc2C(Cl)(Cl)Cl)cc1)C(F)(F)F (stereo not drawn) [3p, 2-Trichloromethyl-3-[4-(S-trifluoromethylsulfonimidoyl)phenoxy]quinoxaline] |  |  |  | 127 °C | 6.5 ± 1.4 µM | 0.21 ± 0.05 µM | 31.0 |  | 
18 | ClC(Cl)(Cl)c1nc2ccccc2nc1Oc1ccc(-c2ccccc2)cc1 [3s, 2-([1,1′-Biphenyl]-4-yloxy)-3-trichloromethylquinoxaline] | poor aqueous solubility |  |  | 160 °C | > 62.5 µM | 0.6 ± 0.1 µM | >104.2 |  | 
19 | ClC(Cl)(Cl)c1nc2ccccc2nc1Oc1cccc(-c2ccccc2)c1 [3t, 2-([1,1′-Biphenyl]-3-yloxy)-3-trichloromethylquinoxaline] | poor aqueous solubility |  |  |  | > 31.2 µM | 0.5 ± 0.05 µM | >62.5 |  | 
20 | O=[N+]([O-])c1ccc(Oc2cnc3ccccc3n2)cc1 [3u, 2-(4-Nitrophenoxy)quinoxaline] |  |  | > 16 µM | 156 °C |  | > 25 µM |  |  | 
21 | O=[N+]([O-])c1ccc(Oc2nc3ccccc3nc2C(F)(F)F)cc1 [3v, 2-(4-Nitrophenoxy)-3-trifluoromethylquinoxaline] |  |  | > 16 µM | 125 °C |  | > 25 µM |  |  | 
22 | O=[N+]([O-])c1ccc(Oc2nc3ccccc3nc2C(Cl)Cl)cc1 [3w, 2-Dichloromethyl-3-(4-nitrophenoxy)quinoxaline] |  |  |  | 112 °C |  | > 16 µM |  |  | 
23 | C[C@H]1[C@H](OC(=O)CCC(=O)O)O[C@@H]2O[C@@]3(C)CC[C@H]4[C@H](C)CC[C@@H]1[C@@]24OO3 [Artesunate, reference compound] |  |  |  |  | 14.7 ± 1.4 µM | 0.003 ± 0.0012 µM | 4900 |  | 
24 | CCN(CC)CCCC(C)Nc1ccnc2cc(Cl)ccc12 (stereo not drawn) [Chloroquine, reference compound] |  |  |  |  |  |  |  |  | 0.8 µM
25 | COc1cccc2c1C(=O)c1c(O)c3c(c(O)c1C2=O)C[C@@](O)(C(=O)CO)C[C@@H]3O[C@H]1C[C@H](N)[C@H](O)[C@H](C)O1 [Doxorubicin, reference compound] |  |  |  |  | 0.2 µM |  |  |  | 
26 | C[C@H]1c2cccc(O)c2C(=O)C2=C(O)[C@]3(O)C(=O)C(C(N)=O)=C(O)[C@@H](N(C)C)[C@@H]3[C@@H](O)[C@@H]21 [Doxycycline, reference compound] |  |  |  |  | 20 µM | 6 µM | 3.3 |  | 

Reference: paper PMC8400257, “2-Phenoxy-3-Trichloromethylquinoxalines Are Antiplasmodial Derivatives with Activity against the Apicoplast of Plasmodium falciparum” (Pharmaceuticals, 2021)
